From article PMC6651024, “LIR Motif-Containing Hyperdisulfide β-Ginkgotide is Cytoprotective, Adaptogenic, and Scaffold-Ready” (Molecules, 2019)
Entries after “also recorded” stand apart in the source; their conditions may differ. Where a SMILES comes first, the peptide text is derived from it.

Key:
Candida albicans = settings: concentrations up to 100 µM; cited from earlier work
H9c2 cells [1] = assay: MTT-based cell proliferation assay under normoxia, H9c2; parameters: species or system rat; settings: H9c2, 10 µM peptide, 48 h, triplicates
From the text: (§1) In addition, β-gB1 is non-toxic to Vero and BHK (baby hamster kidney) cell lines based on an MTT assay. […] LDH is a cytoplasmic enzyme which is rapidly released into the cell culture medium upon plasma membrane damage and is widely used as a marker for cytotoxicity. Thus, an LDH-release assay measures the level of plasma membrane damage to a cell population.
(§2) Rat cardio-myoblast cells (H9c2) and […] neuron-like SH-SY5Y cells were purchased from ATCC and maintained in DMEM (Dulbecco’s modified eagle medium) medium supplemented with 10% fetal bovine serum (FBS), 10,000 U/mL of penicillin, and 10,000 µg/mL of streptomycin at 37 °C, 5% CO2.
Cells were cultured in DMEM with or without β-gB1/S-alkylated β-gB1 (β-gB1Alk) for 48 h under normoxia, hypoxia, and hypoxia-reoxygenation conditions. Phosphate-buffered saline (PBS) was used as a vehicle control. After 48 h, MTT (3-(4,5-dimethylthiazol-2-yl)-2,5-diphenyltetrazolium bromide) reagent was added with a final concentration of 0.5 mg/mL, and it was incubated at 37 °C for 2 h. The culture medium was then aspirated, and purple formazan crystals were dissolved in DMSO for colorimetric quantification at 570 nm using a microplate reader with a reference wavelength of 630 nm. […]

H9c2 cells [2] = assay: LDH release cytotoxicity assay, H9c2; type: cell-based, rat; settings: H9c2, 10 µM peptide, 48 h, 37 °C; LDH kit, 450 nm; triplicates
From the text: as §1, §2
(§3) An LDH release assay was performed using the CytoSelect™ LDH cytotoxicity assay kit (CBA-241, Cell Biolabs, Inc., San Diego, CA, USA). In brief, cells were cultured in DMEM with or without 10 µM of β-gB1 and S-alkylated β-gB1 (β-gB1Alk) for 48 h at 37 °C and 5% CO2. PBS was used for the vehicle control experiment. The culture medium was transferred and mixed with the LDH assay reagent in a ratio of 9:1. The reaction mixture was incubated at 37 °C for 2 h, and colorimetric quantification was performed using a 450 nm wavelength. The assay was performed in experimental triplicates, and statistical calculations and bar graphs were done using GraphPad Prism software (Version 6.01). […]

[3] = Thermal stability by far-UV circular dichroism spectroscopy; type: physicochemical; settings: heating up to 90 °C (20, 55, 90 °C); 42 µM peptide in sodium phosphate buffer pH 7.5; 190-260 nm
Description: The secondary structure and thermal stability of the synthetic β-gB1 were assessed using circular dichroism (CD) spectroscopy. The far-UV CD data of β-gB1 were acquired at 20 °C, and secondary structure composition was predicted using the CDSSTR algorithm with a normalized root mean square deviation (RMSD) value of 0.021. The CD spectroscopy spectra agreed with the predicted secondary structure of folded β-gB1, which consists 28% strands, 16% turns, 1% helices, and 55% unordered structures (Figure 1A). The spectrum is in strike contrast with that of the S-reduced β-gB1, which is devoid of a secondary structure (Figure 1A).
Far-UV CD spectra were recorded for the synthetic and folded β-ginkgotide β-gB1 (42 µM) in a sodium phosphate buffer (pH 7.5) on a Chirascan™ CD spectrometer (Applied Photophysics, Leatherhead, UK) equipped with a temperature controller. Spectra were acquired between 190 and 260 nm from 20 to 90 °C using a 1 mm path-length quartz cuvette, a 1 nm spectral bandwidth, and a 1 nm step size. CD spectroscopy data were analyzed for secondary structure content using CDSSTR [23]. CD data were expressed as mean residue ellipticity (in deg cm^2dmol^−1).

Beclin-1 (BECN1) = assay: Western blot of autophagy marker Beclin-1 in SH-SY5Y cells; type: cell-based, human; settings: western blot densitometry relative to GAPDH, normalized to vehicle control, mean, triplicates
Description: The LIR-containing proteins regulate autophagosome formation by interacting with the protein Atg8 (autophagy-related gene, Atg) family through their LIR sequences. […] The SH-SY5Y cells were cultured with or without β-gB1. The autophagy markers, Beclin-1 (BECN1), LC3B-I, and LC3B-II, were identified and quantified by western blot analysis. Beclin-1 plays an important role in regulating both autophagy and cell death, whereas LC3B is an important component of the autophagy pathway and the most widely used marker for autophagosomes. Two of the processed LC3B protein are LC3B-I and LC3B-II. LC3B-I is a truncated LC3B. In contrast, LC3B-II is a truncated and lipidated version of LC3B-I [28, 29]. Importantly, LC3B-II is centrally involved in the events of autophagosome membrane expansion and fusion. […]
A 25 µg equivalent quantity of each protein samples were resolved on a 10% and 15% SDS-PAGE gel accordingly and transferred onto a nitrocellulose membrane. […] Protein bands were quantitated densitometrically using ImageJ software (ImageJ15.0b, Wayen Rasband, NIH, Bethesda, Maryland, USA), expressed relative to GAPDH, and normalized to the vehicle control cells. […]

SH-SY5Y cells = assay: LDH release cytotoxicity assay, SH-SY5Y; type: cell-based, mouse; settings: 10 µM peptide, 48 h, 37 °C, LDH kit, 450 nm, triplicates
From the text: as §1, §2, §3

H9c2 cells [4] = assay: Hypoxia-reoxygenation injury, MTT assay, H9c2; type: cell-based, rat; settings: H9c2, 1 µM peptide, 24 h hypoxia then 24 h normoxia, triplicates
Description: Cells were cultured with or without β-gB1 and its S-alkylated β-gB1, first under the hypoxic condition for 24 h and then at a normal oxygen environment for another 24 h. The cell viability under hypoxia-reoxygenation condition was assessed by the MTT assay.
as §2
Cells were seeded in a cell culture medium with/without β-gB1 and incubated at 37 °C, 5% CO2 overnight. The next day, the cells were locked inside a BD GasPak EZ anaerobe pouch system (BD Diagnostics, MD) and incubated at 37 °C for the next 48 h for the hypoxia condition. In addition, the cells were cultured under a normal oxygenated environment for the normoxic control. In hypoxia-reoxygenation experiments, the cells were incubated for 24 h in hypoxic conditions before being incubated for another 24 h under normoxia.
Phosphate-buffered saline (PBS) was used as a vehicle control.

CC[C@H](C)[C@@H]1NC(=O)[C@@H]2CSSC[C@H](NC(=O)CNC(=O)[C@@H](NC(=O)[C@H](CCC(=O)O)NC(=O)[C@@H](N)Cc3ccc(O)cc3)[C@@H](C)O)C(=O)N[C@@H](CCCCN)C(=O)N[C@@H](CCCNC(=N)N)C(=O)N[C@H]3CSSC[C@@H](C(=O)O)NC(=O)[C@H](CSSC[C@H](NC3=O)C(=O)N[C@@H](Cc3ccc(O)cc3)C(=O)N[C@@H](CC(C)C)C(=O)N[C@@H](CC(=O)O)C(=O)N[C@@H](CCC(=O)O)C(=O)N[C@@H](Cc3ccc(O)cc3)C(=O)NCC(=O)N2)NC(=O)[C@H](CCCNC(=N)N)NC1=O [β-gB1] (HELM PEPTIDE1{Y.E.T.G.C.K.R.C.C.Y.L.D.E.Y.G.C.I.R.C.C}$PEPTIDE1,PEPTIDE1,5:R3-16:R3|PEPTIDE1,PEPTIDE1,8:R3-20:R3|PEPTIDE1,PEPTIDE1,9:R3-19:R3$$$V2.0; N-terminus and C-terminus assumed)
Antimicrobial effect (Candida albicans): does not exhibit an antimicrobial effect | Cell viability (growth or death) under normoxia (H9c2 cells [1]): No change in cell viability; also recorded: no significant effect on the growth or death | Cytotoxicity / cell-membrane damage by LDH release (H9c2 cells [2]): no significant cytotoxicity or cell-membrane damaging effects | Effect of heating on far-UV CD spectrum (thermal denaturation) [3]: did not alter its CD spectrum | Increase of BECN1 expression vs control (Beclin-1 (BECN1)): 1.5 fold | Cytotoxicity / cell-membrane damage by LDH release (SH-SY5Y cells): no significant cytotoxicity or cell-membrane damaging effects | Increase of cell survivability under hypoxia-reoxygenation (H9c2 cells [4]): 24%
